In patent publication US8802597B2, “Herbicidal pyrimidines” (E I du Pont de Nemours and Company, priority 2003, dated 2014):

What was measured:
Assay in all cases: Test C pre/postemergence
Type in all cases: in vivo
[1] = tested on: Surinam grass (Brachiaria decumbens); conditions: Urochloa decumbens, post-emergence, Postemergence
Outline: (§1)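 Greenhouse herbicide screen, visual readout. Compound in solvent/surfactant applied preemergence at planting or postemergence to 1- to 4-leaf plants; assessed at 12–14 days on a 0–100 control scale.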

[2] = tested on: bermudagrass (Cynodon dactylon); conditions: Cynodon dactylon, post-emergence, Postemergence
Outline: as §1

[3] = tested on: crabgrass (Digitaria sanguinalis); conditions: Digitaria sanguinalis, post-emergence, Postemergence
Outline: as §1

[4] = tested on: giant foxtail (Setaria faberii); conditions: Setaria faberi, post-emergence, Postemergence
Outline: as §1

[5] = tested on: goosegrass (Eleusine indica); conditions: Eleusine indica, post-emergence, Postemergence
Outline: as §1

[6] = tested on: johnsongrass (Sorghum halepense); conditions: Sorghum halepense, post-emergence, Postemergence
Outline: as §1

kochia (Kochia scoparia) = conditions: Bassia scoparia, post-emergence, Postemergence
Outline: as §1

[7] = tested on: morningglory (Ipomoea coccinea); conditions: Ipomoea, post-emergence, Postemergence
Outline: as §1

[8] = tested on: pigweed (Amaranthus retroflexus); conditions: Amaranthus retroflexus, post-emergence, Postemergence
Outline: as §1

soybean (Glycine max) = conditions: Glycine max, post-emergence, Postemergence
Outline: as §1

[9] = tested on: woolly cupgrass (Eriochloa villosa); conditions: Eriochloa villosa, post-emergence, Postemergence
Outline: as §1

CCOC(=O)c1nc(-c2ccc(Br)cc2)nc(N)c1Cl [Compound 94, ethyl 6-amino-2-(4-bromophenyl)-5-chloro-4-pyrimidinecarboxylate]
pest or weed control at 125 g/ha ([1]; 125 g ai/ha, scale 0 to 100 (0 no effect, 100 complete control), read-out: Surinam Grass plant response rating): 100% | pest or weed control at 16 g/ha ([1]; 16 g ai/ha, read-out: Plant response rating (scale of 0 to 100), Surinam Grass): 50% | pest or weed control at 31 g/ha ([1]; 31 g ai/ha, read-out: Plant response rating (scale of 0 to 100), Surinam Grass): 60% | pest or weed control at 62 g/ha ([1]; 62 g ai/ha, read-out: Plant response rating (scale of 0 to 100), Surinam Grass): 90% | pest or weed control at 16 g/ha ([2]; 16 g ai/ha, read-out: Plant response rating (scale of 0 to 100), Bermudagrass): 60% | pest or weed control at 31 g/ha ([2]; 31 g ai/ha, read-out: Plant response rating (scale of 0 to 100), Bermudagrass): 70% | pest or weed control at 62 g/ha ([2]; 62 g ai/ha, scale 0 to 100 (0 no effect, 100 complete control), read-out: Bermudagrass plant response rating): 75% | pest or weed control at 125 g/ha ([2]; 125 g ai/ha, scale 0 to 100 (0 no effect, 100 complete control), read-out: Bermudagrass plant response rating): 80% | pest or weed control at 16 g/ha ([3]; 16 g ai/ha, read-out: Plant response rating (scale of 0 to 100), Crabgrass): 70% | pest or weed control at 31 g/ha ([3]; 31 g ai/ha, read-out: Plant response rating (scale of 0 to 100), Crabgrass): 80% | pest or weed control at 62 g/ha ([3]; 62 g ai/ha, read-out: Plant response rating (scale of 0 to 100), Crabgrass): 85% | pest or weed control at 125 g/ha ([3]; 125 g ai/ha, scale 0 to 100 (0 no effect, 100 complete control), read-out: Crabgrass plant response rating): 85% | pest or weed control at 125 g/ha ([4]; 125 g ai/ha, scale 0 to 100 (0 no effect, 100 complete control), read-out: Foxtail, Giant plant response rating): 80% | pest or weed control at 16 g/ha ([4]; 16 g ai/ha, read-out: Plant response rating (scale of 0 to 100), Foxtail, Giant): 30% | pest or weed control at 31 g/ha ([4]; 31 g ai/ha, read-out: Plant response rating (scale of 0 to 100), Foxtail, Giant): 65% | pest or weed control at 62 g/ha ([4]; 62 g ai/ha, read-out: Plant response rating (scale of 0 to 100), Foxtail, Giant): 80% | pest or weed control at 16 g/ha ([5]; 16 g ai/ha, read-out: Plant response rating (scale of 0 to 100), Goosegrass): 35% | pest or weed control at 31 g/ha ([5]; 31 g ai/ha, read-out: Plant response rating (scale of 0 to 100), Goosegrass): 60% | pest or weed control at 62 g/ha ([5]; 62 g ai/ha, read-out: Plant response rating (scale of 0 to 100), Goosegrass): 80% | pest or weed control at 125 g/ha ([5]; 125 g ai/ha, scale 0 to 100 (0 no effect, 100 complete control), read-out: Goosegrass plant response rating): 80% | pest or weed control at 16 g/ha ([6]; 16 g ai/ha, read-out: Plant response rating (scale of 0 to 100), Johnsongrass): 55% | pest or weed control at 31 g/ha ([6]; 31 g ai/ha, read-out: Plant response rating (scale of 0 to 100), Johnsongrass): 60% | pest or weed control at 62 g/ha ([6]; 62 g ai/ha, read-out: Plant response rating (scale of 0 to 100), Johnsongrass): 75% | pest or weed control at 125 g/ha ([6]; 125 g ai/ha, scale 0 to 100 (0 no effect, 100 complete control), read-out: Johnsongrass plant response rating): 90% | pest or weed control at 16 g/ha (kochia (Kochia scoparia); 16 g ai/ha, read-out: Plant response rating (scale of 0 to 100), Kochia): 75% | pest or weed control at 31 g/ha (kochia (Kochia scoparia); 31 g ai/ha, read-out: Plant response rating (scale of 0 to 100), Kochia): 90% | pest or weed control at 62 g/ha (kochia (Kochia scoparia); 62 g ai/ha, read-out: Plant response rating (scale of 0 to 100), Kochia): 95% | pest or weed control at 125 g/ha (kochia (Kochia scoparia); 125 g ai/ha, scale 0 to 100 (0 no effect, 100 complete control), read-out: Kochia plant response rating): 100% | pest or weed control at 16 g/ha ([7]; 16 g ai/ha, read-out: Plant response rating (scale of 0 to 100), Morningglory): 60% | pest or weed control at 31 g/ha ([7]; 31 g ai/ha, read-out: Plant response rating (scale of 0 to 100), Morningglory): 80% | pest or weed control at 62 g/ha ([7]; 62 g ai/ha, read-out: Plant response rating (scale of 0 to 100), Morningglory): 90% | pest or weed control at 125 g/ha ([7]; 125 g ai/ha, scale 0 to 100 (0 no effect, 100 complete control), read-out: Morningglory plant response rating): 100% | pest or weed control at 16 g/ha ([8]; 16 g ai/ha, read-out: Plant response rating (scale of 0 to 100), Pigweed): 95% | pest or weed control at 31 g/ha ([8]; 31 g ai/ha, read-out: Plant response rating (scale of 0 to 100), Pigweed): 100% | pest or weed control at 62 g/ha ([8]; 62 g ai/ha, read-out: Plant response rating (scale of 0 to 100), Pigweed): 100% | pest or weed control at 125 g/ha ([8]; 125 g ai/ha, scale 0 to 100 (0 no effect, 100 complete control), read-out: Pigweed plant response rating): 100% | plant injury at 16 g/ha (soybean (Glycine max); 16 g ai/ha, read-out: Plant response rating (scale of 0 to 100), Soybean): 100% | plant injury at 31 g/ha (soybean (Glycine max); 31 g ai/ha, read-out: Plant response rating (scale of 0 to 100), Soybean): 100% | plant injury at 62 g/ha (soybean (Glycine max); 62 g ai/ha, read-out: Plant response rating (scale of 0 to 100), Soybean): 100% | plant injury at 125 g/ha (soybean (Glycine max); 125 g ai/ha, scale 0 to 100 (0 no effect, 100 complete control), read-out: Soybean plant response rating): 100% | pest or weed control at 16 g/ha ([9]; 16 g ai/ha, read-out: Plant response rating (scale of 0 to 100), Cupgrass, Woolly): 60% | pest or weed control at 31 g/ha ([9]; 31 g ai/ha, read-out: Plant response rating (scale of 0 to 100), Cupgrass, Woolly): 80% | pest or weed control at 62 g/ha ([9]; 62 g ai/ha, read-out: Plant response rating (scale of 0 to 100), Cupgrass, Woolly): 90% | pest or weed control at 125 g/ha ([9]; 125 g ai/ha, scale 0 to 100 (0 no effect, 100 complete control), read-out: Cupgrass, Woolly plant response rating): 90%
